IC50 data for 1 compound are collected here from patent publication US7132547B2, “Preventives/remedies for urinary disturbance” (priority 2001, dated 2006).

pIC50: −log10 of the molar value.

Test [1] addresses T1, human adrenaline α1A receptor (Homo sapiens, UniProt P35348).
T1 construct: expressed in transfected cells; membrane fraction
T1 sequence (P35348 1-466): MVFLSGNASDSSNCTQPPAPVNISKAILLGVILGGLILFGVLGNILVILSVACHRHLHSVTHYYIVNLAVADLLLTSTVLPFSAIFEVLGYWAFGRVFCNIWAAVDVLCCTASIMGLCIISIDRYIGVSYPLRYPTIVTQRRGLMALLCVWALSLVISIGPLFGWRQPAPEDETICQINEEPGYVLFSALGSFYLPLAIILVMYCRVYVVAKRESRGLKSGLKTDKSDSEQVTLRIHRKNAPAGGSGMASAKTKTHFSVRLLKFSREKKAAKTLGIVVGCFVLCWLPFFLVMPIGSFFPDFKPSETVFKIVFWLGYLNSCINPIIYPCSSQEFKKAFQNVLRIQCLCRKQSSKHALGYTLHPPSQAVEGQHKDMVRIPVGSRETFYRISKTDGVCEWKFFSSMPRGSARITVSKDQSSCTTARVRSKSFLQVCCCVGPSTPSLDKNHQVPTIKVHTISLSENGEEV
Nature of the test: Measurement of α1A receptor binding inhibitory activity ([3H]-Prazosin binding to CHO-K1 membrane fraction). Particulars: concentration reducing [3H]-Prazosin (2.5 nM) binding to the membrane fraction to 50%. The method, then:
b) Measurement of α1A Receptor Binding Inhibitory Activity
The following gene manipulation method was carried out according to the method described in a textbook (Miniatis et al., Molecular Cloning, Cold Spring Harbor Laboratory, 1989) or the method described in protocol attached to a reagent.
(i) Preparation of Expression Plasmid for Human Adrenaline α1A Receptor
An adrenaline α1A receptor gene was cloned from a human liver cDNA by a PCR method. A PCR reaction was performed with Gene Amp PCR System 9700 (Applied Biosystems) using 200 ng of a human liver cDNA library (TAKARA SHUZO Co., Ltd.) as a template and using TaKaRa Pyrobest DNA Polymerase (TAKARA SHUZO CO., Ltd) and adding each 50 pmol of a primer set 5′-[…]-3′ [SEQ ID No.: 1] and 5′-[…]-3[SEQ ID No.: 2] prepared making reference to a nucleotide sequence of an adrenaline α1A receptor gene which was reported by Hirasawa A. et al. (Biochem. Biophys. Res. Commun., 195, 902–909(1993)) (reaction condition: 45 cycles of 15 seconds at 94° C., and 3 minutes 30 seconds at 68° C.).
The obtained PCR fragment was digested with restriction enzymes Eco RI (TAKARA SHUZO Co. Ltd.) and Sal I. (TAKARA SHUZO Co. Ltd.), and agarose gel electrophoresis was performed to recover DNA fragments. The DNA fragments were mixed with an animal cell expression plasmid pMSR αneo (Administration No. A99–0013) which had been digested with Eco RI and Sal I, ligated with DNA Ligation Kit Ver. 2 (TAKARA SHUZO Co. Ltd.), and a competent cell of Esherichia coli JM109 was transformed to obtain a plasmid pMSR αneoA dreα1A.
(ii) Introduction of Plasmid for Expression of Human Adrenaline α1A Receptor into CHO-K1 Cell and Preparation of Membrane Fraction
CHO-K1 cells which had been subcultured in a 150 cm^2 culturing flask (Corning Coaster) using Ham F12 medium (Invitrogen) containing 10% fetal bovine serum (TRACE SCIENTIFIC) was peeled with 0.5 g/L trypsin-0.2 g/L EDTA(Invitrogen), cells were washed with D-PBS(−) (Invitrogen), centrifuged (1000 rpm, 5 min.), and suspended in D-PBS(−). […]

The target of test [2] is T2, human erythrocyte-derived acetylcholinesterase (Homo sapiens, UniProt P22303).
T2 construct: Human erythrocyte-drived acetylcholinesterase (Sigma) was dissolved in distilled water; purchased Sigma; host or cells: human erythrocytes (natural source)
T2 sequence (P22303 32-617 isoform P22303-2 limits assumed): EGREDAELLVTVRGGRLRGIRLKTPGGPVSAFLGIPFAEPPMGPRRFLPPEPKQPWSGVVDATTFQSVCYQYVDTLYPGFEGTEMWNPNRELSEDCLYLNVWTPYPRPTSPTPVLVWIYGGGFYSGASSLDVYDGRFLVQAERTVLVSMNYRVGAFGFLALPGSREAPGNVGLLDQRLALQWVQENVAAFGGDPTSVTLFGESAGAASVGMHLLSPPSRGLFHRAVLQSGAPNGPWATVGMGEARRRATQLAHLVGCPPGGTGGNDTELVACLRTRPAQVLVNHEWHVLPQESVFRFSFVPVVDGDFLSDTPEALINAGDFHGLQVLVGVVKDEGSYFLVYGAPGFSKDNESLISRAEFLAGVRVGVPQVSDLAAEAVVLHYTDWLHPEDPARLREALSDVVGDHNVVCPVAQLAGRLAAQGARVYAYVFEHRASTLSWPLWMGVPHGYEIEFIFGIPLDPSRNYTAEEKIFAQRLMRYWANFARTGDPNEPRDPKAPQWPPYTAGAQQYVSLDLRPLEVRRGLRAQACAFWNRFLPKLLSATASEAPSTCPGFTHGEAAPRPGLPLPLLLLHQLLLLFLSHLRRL
Nature of the test: Measurement of acetylcholinesterase inhibitory activity (acetylthiocholine / Ellman method). The conditions noted are these: 50% inhibition concentration, repeated at least three times, read-out: AchE: IC50. In kind it is biochemical. As to the method:
a) Measurement of Acetylcholinesterase Inhibitory Activity
Acetylcholinesterase inhibitory activity of Example compounds was measured using human erythrocyte-derived acetylcholinesterase by an acetylthiocholine method (Ellman method).
Human erythrocyte-drived acetylcholinesterase (Sigma) was dissolved in distilled water to the concentration of 0.2 IU/mL to obtain an enzyme specimen. 20 μL of a drug solution, 30 μL of 80 mM Tris-HCL (pH 7.4), 50 μL of an enzyme specimen and 50 μL of 5 mM 5,5-dithio-bis (2-nitrobenzoic acid)(Sigma) were dispensed on a 96-well microplate, and this was shaken for 10 seconds. 50 μL of 4 mM acetylthiocholine iodide (Sigma) was added, this was shaken again and, immediately after, increase in absorbance at 414 nm was measured at 30 second intervals for 10 minutes. Enzyme activity was measured by the following equation: R=5.74×10^−7×ΔA (wherein R represents enzyme activity (mol), and ΔA represents increase in absorbance at 414 nm)
Regarding each compound, the experiment was repeated at least three times to obtain 50% inhibition concentration (IC50). According to the similar method to the above-mentioned, acetylcholinesterase inhibitory activity of distigmine which is a known acetylcholinesterase inhibitor was measured.

A word on the pIC50: it is the negative decadic logarithm of the IC50, by convention in mol/L. For the compound `COc1ccccc1CCNCCCCCC(=O)c1cc2c3c(c1)CCN3C(=O)CC2.Cl` [Example 20, 8-(6-[[2-(2-Methoxyphenyl)ethyl]amino]hexanoyl]-1,2,5,6-tetrahydro-4H-pyrrolo[3,2,1-ij]quinolin-4-one hydrochloride], the pIC50 in test [1] was 6.78; in test [2] it was 6.75.
